Earlier results in patent publication US20100069397A1, “SEXUAL DYSFUNCTION COMPOUNDS” (Pharmacia AB, priority 2002, published 2010).

Key:
[1] = dose of 1-3 mg, taken 0.5-1 h before sexual activity; per WO 00/40226
[2] = free base; per European Patent Application No. 0 960 621

## CN[C@@H]1Cc2cccc3[nH]c(=O)n(c23)C1.O=C(O)/C=C\C(=O)O [(R)-5,6-dihydro-5-(methylamino)-4H-imidazo[4,5-ij]-quinolin-2(1H)-one (Z)-2-butenedioate (1:1)]
[1]
  therapeutic effect in sexual dysfunction: therapeutically effective

## CCCc1nn(C)c2c(=O)[nH]c(-c3cc(S(=O)(=O)N4CCN(C)CC4)ccc3OCC)nc12 [sildenafil]
[2]
  solubility in water: extremely low solubility in water
